Results reported in patent US8153599B1, “Compounds with the biological activity of vasoactive intestinal peptide for the treatment of pulmonary and arteriolar hypertension” (Mondobiotech AG, priority 2000, dated 2012).
Read-outs that look alike come from different tables or passages of the source. No end group written: not given here.

Legend:
[1] = Acute testing of inhaled peptide in PPH patient, right heart catheterisation (pulmonary hemodynamics and gas exchange); format: in vivo, human; settings: for mean pulmonary artery pressure (mPAP) after inhalation: 100 μg inhaled for 15 minutes, measured 15 minutes after, baseline 63 (VIP) / 65 (PACAP) mmHg; for PVR after inhalation / SvO2 after inhalation / PaO2 after inhalation: 100 μg inhaled; for PVR after inhalation: baseline 12 (VIP) / 13 (PACAP) woods; for SvO2 after inhalation: baseline 61% (VIP) / 59% (PACAP); for PaO2 after inhalation: baseline 91%
Description: A patient with severe PPH was under therapy with diltiazem, furosemid and an anticoagulant. Right heart catheterisation (Swan-Ganz, Baxter, Irvine, Calif., USA) was performed to measure mean pulmonary artery pressure (mpap), cardiac output (CO), mean arterial pressure (MAP), pulmonary capillary wedge pressure (PCWP) mixed venous oxygen saturation (SvO2%) and systemic arterial oxygen pressure (PaO2%). VIP (100 μg in 3 ml NaCl 0.9%) was inhaled for 15 minutes via the MicroDrop Master Jet (MPV, Truma, Germany) using a particle size of 3 μm to provide alveolar deposition of the substance. Alternatively VIP was injected i.v. 20 (ng/kg.b.w./min) via portable pump system (CADD-1, Pharmacia-Upjohn, Vienna, Austria). Pulmonary homodynamic and gas exchange were measured before and 15 minutes after inhalation or i.v. injection of VIP. Right heart catheterisation was performed in the intensive care unit. The patient was monitored on-line electrocardiographically, invasive blood pressure and systemic arterial oxygen saturation (SaO2%) (Hewlett Packard, Böblingen, Germany) were measured. All hemodynamic and oxygen measurements were performed with a cardiac output computer (Explorer, Baxter) and a pressure monitoring kit (Baxter, Irvine, Calif., USA). Calculations were made according to the standard equations in a […] by taking blood from the radial and pulmonary artery (Automatic blood gas system, AVL-995-Hb, Austria). At baseline (before inhalation of VIP), mPAP was 63 mmHg, CI 3.6 l·min^−1, PVR 12 woods, PCWP 9 mmHg, PaO2 91% and SvO2 61%. Addition of 100 μg inhaled VIP improved pulmonary hemodynamic parameters; mPAP decreased to 49 mmHg and PVR to 9 woods. PaO2 to 93% and SvO2 to 63% compared to baseline.
A patient with severe PPH was under therapy with diltiazem, furosemid and an anticoagulant. Right heart catheterisation (Swan-Ganz, Baxter, Irvine, Calif., USA) was performed to measure mean pulmonary artery pressure (mpap), cardiac output (CO), mean arterial pressure (mAP), pulmonary capillary wedge pressure (PCWP) mixed venous oxygen saturation (SvO2%) and systemic arterial oxygen pressure (PaO2%). PACAP (100 μg in 3 ml NaCl 0.9%) was inhaled for 15 minutes via the MicroDrop Master Jet (MPV, Truma, Germany) using a particle size of 3 μm to provide alveolar deposition of the substance. Pulmonary hemodynamics and gas exchange were measured before and 15 minutes after inhalation of PACAP. Right heart catheterisation was performed in the intensive care unit. The patient was monitored on-line electrocardiographically, invasive blood pressure and systemic arterial oxygen saturation (SaO2%) (Hewlett Packard, Böblingen, Germany) were measured. All hemodynamic and oxygen measurements were performed with a cardiac output computer (Explorer, Baxter) and a pressure monitoring kit (Baxter, Irvine, Calif., USA). Calculations were made according to the standard equations in a patient data management system (CareVue 9000, Hewlett Packard, Böblingen, Germany). Blood gas analysis was performed by taking blood from the radial and pulmonary artery (Automatic blood gas system, AVL-995-Hb, Austria). At baseline (before inhalation of PACAP), mPAP was 65 mmHg, CI 3.2 l·min^−1, PVR 13 woods, PCWP 10 mmHg, PaO2 91% and SvO2 59%. Addition of 100 μg inhaled PACAP improved pulmonary hemodynamic parameters; mpap decreased to 45 mmHg and PVR to 8 woods. PaO2 increased to 93% and SvO2 to 62% compared to baseline.

[2] = Inhaled VIP in COPD patient with secondary pulmonary hypertension (SPH); format: in vivo, human
Description: A patient suffering from Chronic Obstructive Pulmonary Disease (COPD) with secondary pulmonary hypertension (SPH) (mPAP 32 mmHg) was tested for their response to inhaled VIP (200 μg in 3 ml NaCl 0.9%) The inhalation of VIP led to a decrease of mPAP from 32 mmHg to 25 mmHg. This effect was paralleled by increase of cardiac output from 4.1 l·min^−1 to 4.8 l·min^−1.

[3] = i.v. VIP in patient with severe essential arteriolar hypertension, intraarterial blood pressure monitoring; format: in vivo, human; settings: 20 ng/kg/min i.v.
Description: FIG. 7: The effect of VIP on systolic and diastolic blood pressure in a patient with essential hypertension after intravenous injection. The patient received VIP at 20 ng/kg/b.w./min. Blood pressure was measured intraarterially. Y-axis: pressure (mmHg), x-axis: time (min).
A patient with severe essential arteriolar hypertension is under treatment with nifedipine and enalapril. Systolic and diastolic systemic arterial pressure (SAP) were measured by intraarterial monitoring. VIP (20 ng/kg/min) was injected i.v. via a portable pump system (CADD-1, Pharmacia-Upjohn, Vienna, Austria). […] Before injection of VIP, the systolic pressure (SAP) was 165 mmHg and the diastolic (DAP) was 110 mmHg.

[4] = system: human pulmonary arterial rings; experiment: Vasodilatory effect on human pulmonary arterial rings (vascular tone in vitro); format: cell-based; settings: after increase of tone by 80 mmol K+, increasing concentrations (FIG. 6)
Description: FIG. 6: Vasodilatory effect of VIP on human pulmonary arterial rings. Arteries of patients subjected to thorax surgery were surgically removed and tested in vitro under standardized procedures for their vascular tone.

[5] = system: Nitric oxide synthetase (ecnos); experiment: Nitric oxide synthetase (ecnos) expression in endothelial cells from pulmonary arteries, Western blot; format: cell-based, human; settings: 10^−7 M, normoxic and hypoxic conditions, 96 hours (FIG. 8)
Description: FIG. 8: Nitric oxide synthetase (ecnos) expression in endothelial cells prepared from pulmonary arteries of control subjects after 96 hours of incubation. Cells were incubated with VIP (10^−7 M) under normoxic (−) and hypoxic (+) conditions for various times. Western blots reveal constitutive expression under normoxic conditions without VIP.
(§1) While VIP-R mRNA accumulation is easily detectable PPH, only low levels of VIP-R mRNA accumulation can be detected in healthy controls (FIG. 3). Analogously an increased receptor binding activity for VIP is seen in primary cultures of pulmonary artery vascular smooth muscle cells (PaVSMC) prepared from pulmonary resistance vessels of PPH patients compared to healthy subjects (FIGS. 4a and 4b). […] Pharmacologically, nitric oxide induces vasodilatation by lowering the intracellular free calcium concentration of PaVSMC.

[6] = system: VSMC prepared from pulmonary arteries; experiment: Interleukin1-b induced elevation of intracellular free calcium in VSMC from pulmonary arteries, fura-2 method; format: cell-based, human; settings: VIP 250 ng/ml and 500 ng/ml (FIG. 9)
Description: FIG. 9: The effect of VIP on the interleukin1-b induced elevation of intracellular free calcium concentration in VSMC prepared from pulmonary arteries. Ordinate-Ca2+ (nmol). 1-basal concentration; 2-interleukin1-b; 3-interleukin1-b plus VIP 250 ng/ml and 4-VIP 500 ng/ml intracellular calcium concentration during incubation with VIP; Ca 2+ was determined by fura-2 method.
as §1

[7] = system: VSMC from pulmonary arterial vessel; experiment: Proliferation of VSMC from pulmonary arterial vessel; format: cell-based, human; settings: 10^−12 M to 10^−9 M (FIG. 10)
Description: FIG. 10: The effect of VIP on the proliferation of VSMC from pulmonary arterial vessel. Ordinate-proliferation as percent of control. 1-without VIP; 2-10^−12M VIP; 3-10^−11M VIP; 4-10^−10M VIP; 5-10^−9M VIP.
as §1

[8] = Acute testing of inhaled peptide in PPH patient, right heart catheterisation (pulmonary hemodynamics and gas exchange); format: in vivo, human; settings: for time dependence of mPAP decrease: 100 μg inhaled (FIG. 5b)
[9] = system: isolated VSMC prepared from pulmonary arteries; experiment: Binding of 99 mTc-VIP to isolated VSMC prepared from pulmonary arteries; parameters: species or system human; settings: for Kd: read-out: binding affinity Kd
Description: FIG. 4: Binding of 99 mTc-VIP to isolated VSMC prepared from pulmonary arteries of PPH patients (4b) and control patients (4a).
as §1

[10] = molecular target: VIP receptor (VIP-R) on vascular smooth muscle cells prepared from human pulmonary arteries (human); experiment: radioligand binding of 99mTc-VIP to isolated VSMC from pulmonary arteries of PPH patients (FIG. 4b)
[11] = molecular target: VIP receptor (VIP-R) on vascular smooth muscle cells prepared from human pulmonary arteries (human); experiment: radioligand binding of 99mTc-VIP to isolated VSMC from pulmonary arteries of control patients (FIG. 4a)
[12] = VSMC of control patients (FIG. 4a)

His-Ser-Asp-Ala-Val-Phe-Thr-Asp-Asn-Tyr-Thr-Arg-Leu-Arg-Lys-Gln-Met-Ala-Val-Lys-Lys-Tyr-Leu-Asn-Ser-Ile-Leu-Asn (HSDAVFTDNYTRLRKQMAVKKYLNSILN; listed as Homo sapiens) [VIP, 28 amino acid peptide hormone]
mean pulmonary artery pressure (mPAP) after inhalation [1]: 49 mmHg | PVR after inhalation [1]: 9 woods | SvO2 after inhalation [1]: 63% | PaO2 after inhalation [1]: 93% | mPAP after inhalation ([2]; 200 μg in 3 ml NaCl 0.9% inhaled, from 32 mmHg): 25 mmHg | cardiac output after inhalation ([2]; 200 μg inhaled, from 4.1 l·min^−1): 4.8 L/min | diastolic pressure (DAP) after application ([3]; before 110 mmHg): 90 mmHg | systolic pressure (SAP) after application ([3]; before 165 mmHg): 145 mmHg | vessel tone [4]: continuous decrease of the vessel tone | ecnos expression [5]: increased expression of ecnos above constitutional level | intracellular free calcium concentration [6]: decrease of the intracellular free calcium concentration | proliferation of PaVSMC [7]: inhibits the proliferation | time dependence of mPAP decrease ([8]; PPH patient): Time dependant decrease | dose dependence of mPAP decrease ([8]; PPH patient, increased inhaled doses (FIG. 5a)): dose-dependently decrease | dose of maximum efficacy on mPAP ([8]; PPH patient, inhaled): 100 µg

99 mTc-VIP: radiolabeled VIP
specific binding Bmax ([9]; VSMC of PPH patients (FIG. 4b)): 0.9 pm per mg protein | Kd ([9]; VSMC of PPH patients (FIG. 4b)): 1.6 pM | specific binding Bmax [9, 12]: 0.6 pm per mg protein | Kd [9, 12]: 42 pM

His-Ser-Asp-Gly-Ile-Phe-Thr-Asp-Ser-Tyr-Ser-Arg-Tyr-Arg-Lys-Gln-Met-Ala-Val-Lys-Lys-Tyr-Leu-Ala-Ala-Val-Leu-Gly-Lys-Arg-Tyr-Lys-Gln-Arg-Val-Lys-Asn-Lys (HSDGIFTDSRYSRYRKQMAVKKYLAAVLGKRYKQRVNK; listed as Homo sapiens) [PACAP, neuropeptide of 38 amino acid residues]
mean pulmonary artery pressure (mPAP) after inhalation [1]: 45 mmHg | PVR after inhalation [1]: 8 woods | SvO2 after inhalation [1]: 62% | PaO2 after inhalation [1]: 93% | time dependence of mPAP decrease ([8]; PPH patient): time-dependently decrease | CI ([8]; Table 1, after, mean, before mean 2.7): 3.2 | PCWP ([8]; Table 1, after, mean, before mean 8.6): 8.5 | mPAP ([8]; Table 1, after, mean, before mean 57.1): 44.4 | SvO2 ([8]; Table 1, after, mean, before mean 60.0): 62.5 | PaO2 ([8]; Table 1, after, mean, before mean 66.8): 69.3 | mAP ([8]; Table 1, after, mean, before mean 84.5): 81.0 | PVR ([8]; Table 1, after, mean, before mean 906.4): 544.1

B1: 99mTc-labelled vasoactive intestinal peptide (VIP) (peptide)
peptide: HSDAVFTDNYTRLRKQMAVKKYLNSILN
modifications: ends and bridges not checked; also: 99mTc radiolabel, site and chelator not given here
Bmax (pm per mg protein) [10]: 0.9 | Kd [10]: 1.6 pM | Bmax (pm per mg protein) [11]: 0.6
